Results taken from patent US12686664B2, “SOCE inhibitors and therapeutic uses thereof” (Institut National de la Santé et de la Recherche Médicale …, priority 2020, dated 2026).

Tests used:
[1] = test system: store-operated Ca^2+ entry in HEK 293; assay: Store-operated Ca2+ entry in HEK 293 cell line; format: cell-based; details: for Effect on amplitude of SOCE peak: % of inhibition (−) or activation
Protocol: The effects of the molecules developed were tested on PLP-B lymphocytes. Store-operated Ca^2+ entry was induced by depletion of Endoplasmic Reticulum Ca^2+ stores (ER Ca^2+ stores) with thapsigargin (Tg) in a Ca^2+-free medium and measured following the addition of 1.8 mM of CaCl2) in the extracellular medium. The results are compared to the results obtained for known SOCE inhibitors SKF-96365, GSK-7975A, Synta 66.
Then, effects of the molecule that gave the best results in this test (i.e., molecule 6αa) were assessed in two cancer cell lines, namely: HEK 293 and HEK 651 HS1 tumor cell lines.

[2] = test system: SOCE in JOK B cells; assay: Intracellular calcium levels / SOCE in JOK B cells (Fura-2AM, FlexStation 3); format: cell-based
Protocol: Intracellular calcium levels were monitored at 37° C. using the FlexStation 3™ (Molecular Devices, Berkshire, UK), a fluorescence plate reader measuring time-resolved intracellular Ca^2+ concentration in a 96-well format with cells loaded with the dual-wavelength fluorescent calcium-sensitive dye Fura-2AM.
Intracellular Ca^2+ stores were depleted with 2 μM Thapsigargin (an inhibitor of ER SERCA pumps) under Ca^2+-free conditions to determine the magnitude of intracellular Ca^2+ release. Next, the cells were returned to Ca^2+-containing Hepes-buffered solution to measure SOCE. The magnitude of SOCE was estimated as the maximal values of normalized fluorescence ratio following Ca^2+ re-addition.

SMILES: COc1ccc(CCOc2ccc(CCn3cnc4ccccc43)cc2)cc1 [6αa DAD 3-473, 1-[4-(4-Methoxyphenethoxy)phenethyl]-1H-benzo[d]imidazole]
- Effect on amplitude of SOCE peak ([1]; 1 μM): 8%
- Effect on amplitude of SOCE peak ([1]; 5 μM): −15%
- Effect on amplitude of SOCE peak ([1]; 10 μM): −73%
- Effect on amplitude of SOCE peak ([1]; 50 μM): −91%
- IC50 ([1]; Homo sapiens, HEK293, average of three assays, ±0.5 μM): 5.1 µM
- amplitude of Ca2+ release from the endoplasmic stores [2]: not found to be significantly affected
- amplitude of SOCE ([2]; 5 and 20 μM, compared to control, irrespective of incubation time (5, 15, 30 minutes, 1 hour)): significantly reduces
